Experimental data published in patent US11306078B2, “Piperidine CXCR7 receptor modulators” (IDORSIA PHARMACEUTICALS LTD., priority 2016, dated 2022).

The molecules below were run against human chemokine receptor CXCR7 (Homo sapiens (Human), UniProt P25106) (assay: Tango CXCR7-bla U2OS beta-arrestin recruitment assay (beta-lactamase reporter, FRET), antagonism of CXCL12/SDF1-α). Conditions: antagonistic effect on CXCR7; Tango CXCR7-bla U2OS cells, CXCL12/SDF1-α at its EC80.
Assay type: cell-based
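Note: compounds preincubated 15 min before CXCL12 addition, then 22 h at 37 °C, FRET emission ratio read with CCF4-AM substrate after 2 h.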

human chemokine receptor CXCR7, sequence (P25106 whole entry): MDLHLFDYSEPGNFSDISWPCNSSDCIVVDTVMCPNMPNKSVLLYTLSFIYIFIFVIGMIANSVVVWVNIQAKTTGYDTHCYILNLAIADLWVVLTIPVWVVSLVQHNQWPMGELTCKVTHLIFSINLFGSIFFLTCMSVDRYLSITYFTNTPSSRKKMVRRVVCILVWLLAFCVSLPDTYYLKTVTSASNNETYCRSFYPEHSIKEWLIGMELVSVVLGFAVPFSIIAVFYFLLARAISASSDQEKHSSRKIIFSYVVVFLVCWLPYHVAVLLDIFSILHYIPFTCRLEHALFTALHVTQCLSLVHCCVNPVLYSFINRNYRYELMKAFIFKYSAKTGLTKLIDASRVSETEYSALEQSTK

Compound	IC50 [nM]
Cn1ccc(CNC(=O)[C@@H]2CN(C3CCCCC3)CC[C@H]2NC(=O)c2cc(-c3ccc(F)cc3F)on2)n1 (racemic) [Example 1.042, rac-(3R*,4R*)-1-Cyclohexyl-4-{[5-(2,4-difluoro-phenyl)-isoxazole-3-carbonyl]-amino}-piperidine-3-carboxylic acid (1-methyl-1H-pyrazol-3-ylmetyl)-amide]	532
O=C(N[C@@H]1CCN(C2CCCCC2)C[C@H]1C(=O)NCc1c[nH]cn1)c1cc(-c2ccc(F)cc2F)on1 (racemic) [Example 1.043, rac-(3R*,4R*)-1-Cyclohexyl-4-{[5-(2,4-difluoro-phenyl)-isoxazole-3-carbonyl]-amino}-piperidine-3-carboxylic acid (1H-imidazol-4-ylmethyl)-amide]	843
Cc1cc(CNC(=O)[C@@H]2CN(C3CCCCC3)CC[C@H]2NC(=O)c2cc(-c3ccc(F)cc3F)on2)nn1C (racemic) [Example 1.045, rac-(3R*,4R*)-1-Cyclohexyl-4-{[5-(2,4-difluoro-phenyl)-isoxazole-3-carbonyl]-amino}-piperidine-3-carboxylic acid (1,5-dimethyl-1H-pyrazol-3-ylmethyl)-amide]	565
CCc1noc(CNC(=O)[C@@H]2CN(C3CCCCC3)CC[C@H]2NC(=O)c2cc(-c3ccc(F)cc3F)on2)n1 (racemic) [Example 1.047, rac-(3R*,4R*)-1-Cyclohexyl-4-{[5-(2,4-difluoro-phenyl)-isoxazole-3-carbonyl]-amino}-piperidine-3-carboxylic acid (3-ethyl-[1,2,4]oxadiazol-5-ylmethyl)-amide]	127
O=C(N[C@@H]1CCN(C2CCCCC2)C[C@H]1C(=O)NCc1cccnc1)c1cc(-c2ccc(F)cc2F)on1 (racemic) [Example 1.048, rac-(3R*,4R*)-1-Cyclohexyl-4-{[5-(2,4-difluoro-phenyl)-isoxazole-3-carbonyl]-amino}-piperidine-3-carboxylic acid (pyridin-3-ylmethyl)-amide]	275
O=C(N[C@@H]1CCN(C2CCCCC2)C[C@H]1C(=O)N1CC(F)(F)C1)c1cc(-c2ccc(F)cc2F)on1 (racemic) [Example 1.052, rac-5-(2,4-Difluoro-phenyl)-isoxazole-3-carboxylic acid [(3R*,4R*)-1-cyclohexyl-3-(3,3-difluoro-azetidine-1-carbonyl)-piperidin-4-yl]-amide]	630
Cc1cc(CNC(=O)[C@@H]2CN(C3CCCCC3)CC[C@H]2NC(=O)c2cc(-c3ccc(F)cc3F)on2)n(C)n1 (racemic) [Example 1.054, rac-(3R*,4R*)-1-Cyclohexyl-4-{[5-(2,4-difluoro-phenyl)-isoxazole-3-carbonyl]-amino}-piperidine-3-carboxylic acid (2,5-dimethyl-2H-pyrazol-3-ylmethyl)-amide]	311
CC(C)N(CCOCCO)C(=O)[C@@H]1CN(C2CCCCC2)CC[C@H]1NC(=O)c1cc(-c2ccc(F)cc2F)on1 (racemic) [Example 1.055, rac-(3R*,4R*)-1-Cyclohexyl-4-{[5-(2,4-difluoro-phenyl)-isoxazole-3-carbonyl]-amino}-piperidine-3-carboxylic acid [2-(2-hydroxy-ethoxy)-ethyl]-isopropyl-amide]	232
O=C(N[C@@H]1CCN(C2CCCCC2)C[C@H]1C(=O)NCCc1ccc(F)cc1)c1cc(-c2ccc(F)cc2F)on1 (racemic) [Example 1.059, rac-(3R*,4R*)-1-Cyclohexyl-4-{[5-(2,4-difluoro-phenyl)-isoxazole-3-carbonyl]-amino}-piperidine-3-carboxylic acid [2-(4-fluoro-phenyl)-ethyl]-amide]	140
Cc1nc(NC(=O)[C@@H]2CN(C3CCCCC3)CC[C@H]2NC(=O)c2cc(-c3ccc(F)cc3F)on2)sc1C (racemic) [Example 1.065, rac-(3R*,4R*)-1-Cyclohexyl-4-{[5-(2,4-difluoro-phenyl)-isoxazole-3-carbonyl]-amino}-piperidine-3-carboxylic acid (4,5-dimethyl-thiazol-2-yl)-amide]	567
O=C(N[C@@H]1CCN(C2CCCCC2)C[C@H]1C(=O)Nc1cccnc1)c1cc(-c2ccc(F)cc2F)on1 (racemic) [Example 1.067, rac-(3R*,4R*)-1-Cyclohexyl-4-{[5-(2,4-difluoro-phenyl)-isoxazole-3-carbonyl]-amino}-piperidine-3-carboxylic acid pyridin-3-ylamide]	319

Now those with a lower IC50, led by results:

IC50 [nM]	Compound
91	O=C(N[C@@H]1CCN(C2CCCCC2)C[C@H]1C(=O)NCCN1CCCC1=O)c1cc(-c2ccc(F)cc2F)on1 (racemic) [Example 1.041, rac-(3R*,4R*)-1-Cyclohexyl-4-{[5-(2,4-difluoro-phenyl)-isoxazole-3-carbonyl]-amino}-piperidine-3-carboxylic acid [2-(2-oxo-pyrrolidin-1-yl)-ethyl]-amide]
49	O=C(N[C@@H]1CCN(C2CCCCC2)C[C@H]1C(=O)NCc1nccs1)c1cc(-c2ccc(F)cc2F)on1 (racemic) [Example 1.051, rac-(3R*,4R*)-1-Cyclohexyl-4-{[5-(2,4-difluoro-phenyl)-isoxazole-3-carbonyl]-amino}-piperidine-3-carboxylic acid (thiazol-2-ylmethyl)-amide]
4	Cc1ccccc1CCNC(=O)[C@@H]1CN(C2CCCCC2)CC[C@H]1NC(=O)c1cc(-c2ccc(F)cc2F)on1 (racemic) [Example 1.056, rac-(3R*,4R*)-1-Cyclohexyl-4-{[5-(2,4-difluoro-phenyl)-isoxazole-3-carbonyl]-amino}-piperidine-3-carboxylic acid (2-o-tolyl-ethyl)-amide]
1	COc1ccccc1CCNC(=O)[C@@H]1CN(C2CCCCC2)CC[C@H]1NC(=O)c1cc(-c2ccc(F)cc2F)on1 (racemic) [Example 1.057, rac-(3R*,4R*)-1-Cyclohexyl-4-{[5-(2,4-difluoro-phenyl)-isoxazole-3-carbonyl]-amino}-piperidine-3-carboxylic acid [2-(2-methoxy-phenyl)-ethyl]-amide]
1	O=C(N[C@@H]1CCN(C2CCCCC2)C[C@H]1C(=O)NCCc1ccccc1Cl)c1cc(-c2ccc(F)cc2F)on1 (racemic) [Example 1.058, rac-(3R*,4R*)-1-Cyclohexyl-4-{[5-(2,4-difluoro-phenyl)-isoxazole-3-carbonyl]-amino}-piperidine-3-carboxylic acid [2-(2-chloro-phenyl)-ethyl]-amide]
16	Cc1ccc(CCNC(=O)[C@@H]2CN(C3CCCCC3)CC[C@H]2NC(=O)c2cc(-c3ccc(F)cc3F)on2)cc1 (racemic) [Example 1.062, rac-(3R*,4R*)-1-Cyclohexyl-4-{[5-(2,4-difluoro-phenyl)-isoxazole-3-carbonyl]-amino}-piperidine-3-carboxylic acid (2-p-tolyl-ethyl)-amide]
16	Cc1cccc(CCNC(=O)[C@@H]2CN(C3CCCCC3)CC[C@H]2NC(=O)c2cc(-c3ccc(F)cc3F)on2)c1 (racemic) [Example 1.066, rac-(3R*,4R*)-1-Cyclohexyl-4-{[5-(2,4-difluoro-phenyl)-isoxazole-3-carbonyl]-amino}-piperidine-3-carboxylic acid (2-m-tolyl-ethyl)-amide]
